Tested on: other identified HDAC proteins
Test: Multiplexed TMT mass spectrometry proteomics in Kelly cells, other HDAC abundance
Format: cell-based, human
Conditions: 1 μM, 2, 4, 8, and 16 hours
Method: Lysis buffer (8 M Urea, 50 mM NaCl, 50 mM 4-(2hydroxyethyl)-1-piperazineethanesulfonic acid (EPPS) pH 8.5, protease and phosphatase inhibitors from Roche®) were added to the cell pellets and homogenized by 20 passes through a 21 gauge (1.25 in. long) needle to achieve a cell lysate with a protein concentration between 1-4 mg mL^−1. A micro-BCA assay (Pierce™) was used to determine the final protein concentration in the cell lysate. 200 μg of protein for each sample were reduced and alkylated as described above.
Proteins were precipitated using methanol/chloroform. Four volumes of methanol were added to the cell lysate, followed by one volume of chloroform, and finally three volumes of water. The mixture was vortexed and centrifuged to separate the chloroform phase from the aqueous phase. […]
Anhydrous ACN was added to each peptide sample to a final concentration of 30% v/v, and labeling was induced with the addition of TMT reagent to each sample at a ratio of 1:4 peptide:TMT label. […] The sample channels were combined at a 1:1:1:1:1:1:1:1:1:1:1 ratio, desalted using Cis solid phase extraction cartridges (Waters) and analyzed by LC-MS for channel ratio comparison. Samples were then combined using the adjusted volumes determined in the channel ratio analysis and dried down in a speed vacuum. […]

CN(C(=O)CCCNc1cccc2c1C(=O)N(C1CCC(=O)NC1=O)C2=O)c1ccc(NC(=O)CCCCCCC(=O)NO)cc1 (stereo not shown) [Compound 1, N^1-(4-(4-((2-(2,6-dioxopiperidin-3-yl)-1,3-dioxoisoindolin-4-yl)amino)-N-methylbutanamido)phenyl)-N^8-hydroxyoctanediamide]
change in cellular protein levels of other identified HDAC proteins (heat map FIG. 5): did not affect the cellular protein levels of the other identified HDAC proteins

Source: patent publication US12569563B2, “Selective HDAC6 degraders and methods of use thereof” (DANA-FARBER CANCER INSTITUTE, INC., priority 2019, dated 2026)
